From US20240360154A1, “AROYL SUBSTITUTED TRICYCLIC COMPOUND, PREPARATION METHOD THEREFOR AND USE THEREOF” (GENFLEET THERAPEUTICS (SHANGHAI) INC., priority 2020, published 2024) come the findings set out here.

A word on the IC50: it is the concentration that gives 50% inhibition.

One test deals with BTK (C481S) (Homo sapiens (Human), UniProt Q06187, C481S). Put plainly: BTK C481S enzyme experiment (ADP-Glo kinase assay). It counts as biochemical. The settings on record: 10 nM BTK C481S, ATP 125 μM, Poly(Glu4, Tyr1), 90 minutes at 20° C. The procedure, abridged:
(§1)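 Wild-type or C481S BTK, added as 2× solution at 10 nM, preincubated 10 min with 3-fold compound dilutions in 50 mM HEPES pH 7.5, 10 mM MgCl2, 2 mM DTT, 0.0015% Brij-35. ADP-Glo luminescence norm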
On the technique in general: ADP-Glo turns the ADP formed in a reaction into a luminescent signal.

The next test deals with p-BTK (C481S) (Homo sapiens (Human), UniProt Q06187, C481S). Briefly: p-BTK cell experiment, HEK293 transfected with C481S-BTK plasmid (P-BTK Y223 sandwich ELISA). The settings on record: HEK293 cells, compound cultured for two hours. It counts as cell-based. On the procedure:
(§2) Day 1: HEK293 cells (ADDEXBIO, T0011001) at logarithmic growth phase were taken, digested with enzyme EDTA, collected and counted, and 2E6 cells were inoculated in a 10 cm culture dish and cultured overnight. Day 2: A mixed solution containing 6 μg of WT-BTK/C481S-BTK plasmid and 18 μL of FuGENE HD transfection reagent was prepared by using 1000 μL of Opti-MEM. After standing at room temperature for 10 minutes, the mixed solution was slowly added to the culture dish with a pipettor and cultured overnight. Day 3: The culture dish was taken out, and the cells were digested with enzyme EDTA, collected and counted, and 1E4 cells were inoculated in a 96-well cell culture plate and cultured overnight. A 3.16-fold gradient concentration stock solution of 1000× compound was prepared using DMSO, and placed at room temperature. Day 4: A prepared 1000× compound stock solution was taken, and diluted 200-fold to 5× compound stock solution with culture medium. 5× compound stock solution was added to each cell culture well with a final concentration of 1× compound stock solution and a DMSO content of 0.1%. DMSO was used as an experimental control. After the compound was added and cultured for two hours, the residual culture medium was removed. 100 μL of cell lysis buffer was added to each well, stood on ice for 30 minutes, and ultrasonically lysed with ice water for 5 minutes. After diluting the cell lysate in proportion, 80 μL of the mixture was transfer to an ELISA plate, and 80 μL of cell lysis buffer was added to the blank well. After incubating in an incubator at 37° C. for 2 hours, the plate was taken and the antibody incubation and color development termination operation were completed according to the instructions of Pathscan P-BTK (Y223) Sandwich ELISA Kit (Cell Signaling #23843 CA), and finally the OD value was read. The inhibition rate of the compound (%)=(ODcontrol−ODcompound)/(ODcontrol−ODblank)×100% was calculated. The compound gradient dilution concentration and the corresponding cell proliferation inhibition rate were fit by using Prism 8 four-parameter method, and IC50 value was calculated.
(In general: In an ELISA, binding on a coated surface is turned into a signal by an enzyme label.)

A further test deals with BTK (Homo sapiens (Human), UniProt Q06187). Put plainly: BTK enzyme experiment (ADP-Glo kinase assay). The settings on record: 10 nM BTK, ATP 125 μM, Poly(Glu4, Tyr1), 90 minutes at 20° C.; read-out: BTK(WT) IC50. It is filed as biochemical. The procedure, abridged:
as §1

The target in a further test is p-BTK (WT) (Homo sapiens (Human), UniProt Q06187). Put plainly: p-BTK cell experiment, HEK293 transfected with WT-BTK plasmid (P-BTK Y223 sandwich ELISA). It counts as cell-based. The settings on record: HEK293 cells, compound cultured for two hours. On the procedure: as §2
Chain of p-BTK (WT) (Q06187 whole entry): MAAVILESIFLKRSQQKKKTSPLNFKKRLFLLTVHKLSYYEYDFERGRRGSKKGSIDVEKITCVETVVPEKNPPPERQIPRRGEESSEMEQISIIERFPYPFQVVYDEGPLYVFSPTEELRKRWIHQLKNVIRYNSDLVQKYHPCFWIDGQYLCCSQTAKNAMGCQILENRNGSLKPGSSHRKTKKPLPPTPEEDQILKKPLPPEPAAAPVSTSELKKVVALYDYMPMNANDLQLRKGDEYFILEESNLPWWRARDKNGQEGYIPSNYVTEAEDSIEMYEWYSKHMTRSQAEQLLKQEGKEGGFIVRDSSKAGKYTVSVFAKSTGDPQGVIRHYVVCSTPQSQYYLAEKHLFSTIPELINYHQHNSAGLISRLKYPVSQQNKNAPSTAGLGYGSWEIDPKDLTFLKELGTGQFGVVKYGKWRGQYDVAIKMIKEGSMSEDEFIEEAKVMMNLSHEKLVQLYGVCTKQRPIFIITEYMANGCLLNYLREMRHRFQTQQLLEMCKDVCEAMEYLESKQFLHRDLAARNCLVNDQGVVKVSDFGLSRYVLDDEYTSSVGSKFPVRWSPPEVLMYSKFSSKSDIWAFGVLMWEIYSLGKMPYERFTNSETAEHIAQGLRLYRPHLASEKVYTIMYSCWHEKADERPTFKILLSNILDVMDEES
A further test relates to TMD-8 cells. Briefly: TMD-8 proliferation inhibition experiment. It counts as cell-based. The settings on record: human diffuse large B lymphoma cells, three days incubation. In outline: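 Log-phase cells seeded in 384-well plates (600 TMD-8 in RPMI 1640, 2000 OCI-LY10 in IMDM, both 10% FBS), then exposed one day later to 3-fold compound dilutions at 0.25% DMSO for three days. ADP-Glo luminescence read; inhibition versus DMSO and medium-only blank, IC50 by four-parameter fit.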

The structures appear in SMILES notation.

Chain of p-BTK (C481S) (Q06187 whole entry C481S): as the sequence (Q06187 whole entry) above, with C481S counted along it
Chain of BTK (C481S) (Q06187 whole entry C481S): as the sequence (Q06187 whole entry) above, with C481S counted along it
Chain of BTK (Q06187 whole entry): as the sequence (Q06187 whole entry) above

Regarding `O=C(c1ccc(Oc2ccccc2)cc1Cl)c1c[nH]c2ncc3c(c12)N[C@@]1(CCCOC1)C(=O)N3` (single isomer, unassigned) [Z16-2], the 50% inhibitory concentration (IC50) on BTK (C481S) was 0.0056 µM; on p-BTK (C481S) it was 0.0104 µM; at BTK, 0.005 µM; on p-BTK (WT), 0.0104 µM; in the test with TMD-8 cells, 0.023 µM.
For `O=C(c1ccc(Oc2ccccc2)cc1Cl)c1c[nH]c2ncc3c(c12)N[C@@]1(CC[C@@H](O)C1)C(=O)N3` (single isomer, unassigned) [Z24-a], the IC50 against BTK (C481S) amounted to 0.0084 µM; on p-BTK (C481S), 0.05 µM; on BTK, 0.0055 µM; on p-BTK (WT), 0.0469 µM; in the test with TMD-8 cells it was 0.113 µM.
For `O=C(c1ccc(Oc2ccccc2)cc1Cl)c1c[nH]c2ncc3c(c12)N[C@]1(CC[C@H](O)C1)C(=O)N3` (single isomer, unassigned) [Z24-b], in that order: 0.0058 µM, 0.039 µM, 0.0042 µM, 0.0395 µM and 0.0808 µM.
Consider `O=C(c1ccc(Oc2ccccc2)cc1Cl)c1c[nH]c2ncc3c(c12)N[C@]1(CC[C@@H](O)C1)C(=O)N3` (single isomer, unassigned) [Z24-c], for which the IC50 against BTK (C481S) worked out at 0.003 µM; against p-BTK (C481S), 0.0162 µM; on BTK, 0.0032 µM; against p-BTK (WT) it was 0.0196 µM; with TMD-8 cells, 0.0506 µM.
For `O=C(c1ccc(Oc2ccccc2)cc1Cl)c1c[nH]c2ncc3c(c12)N[C@@]1(CC[C@H](O)C1)C(=O)N3` (single isomer, unassigned) [Z24-d], in that order: 0.0031 µM, 0.0153 µM, 0.0034 µM, 0.0169 µM and 0.052 µM.
For `COC1CCC2(C1)Nc1c(cnc3[nH]cc(C(=O)c4ccc(Oc5ccccc5)cc4Cl)c13)NC2=O` (single isomer, unassigned) [Z25-2, 9′-(2-chloro-4-phenoxybenzoyl)-3-methoxy-4′,7′-dihydrospiro[cyclopentane-1,2′-pyrrolo[3′,2′:5,6]pyrido[3,4-b]pyrazin]-3′(1′H)-one], in that order: 0.0087 µM, 0.0327 µM, 0.0147 µM, 0.0152 µM and 0.0804 µM.
On to `N#C[C@@H]1CC[C@]2(C1)Nc1c(cnc3[nH]cc(C(=O)c4ccc(Oc5ccccc5)cc4Cl)c13)NC2=O` (single isomer, unassigned) [Z26-1], for which the IC50 turned out to be 0.0154 µM on BTK (C481S); 0.0384 µM at p-BTK (C481S); 0.0156 µM at BTK; 0.0315 µM against p-BTK (WT); 0.0477 µM with TMD-8 cells.
Turning to `COCC1(C)Nc2c(cnc3[nH]cc(C(=O)c4ccc(Oc5cc(C)ccn5)cc4Cl)c23)NC1=O` (single isomer, unassigned) [Z64-1, 9-(2-chloro-4-((4-methylpyridin-2-yl)oxy)benzoyl)-2-(methoxymethyl)-2-methyl-1,2,4,7-tetrahydro-3H-pyrrolo[3′,2′:5,6]pyrido[3,4-b]pyrazin-3-one], the IC50 at BTK (C481S) turned out to be 0.0107 µM; against p-BTK (C481S) it was 0.198 µM; at BTK, 0.0063 µM; on p-BTK (WT), 0.0585 µM; in the test on TMD-8 cells (Homo sapiens, TMD8, 72 h), 0.194 µM.
For `[2H]C([2H])([2H])OC[C@]1(C)Nc2c(cnc3[nH]cc(C(=O)c4ccc(Oc5ccccc5)cc4Cl)c23)NC1=O` (single isomer, unassigned) [Z66-1], in that order: 0.0038 µM, 0.0381 µM, 0.0067 µM, 0.0296 µM and 0.0948 µM.
The matching figures for `CCOC[C@]1(C)Nc2c(cnc3[nH]cc(C(=O)c4ccc(Oc5ccccc5)cc4Cl)c23)NC1=O` (single isomer, unassigned) [Z67-1]: 0.0103 µM, 0.0426 µM, 0.0096 µM, 0.0373 µM and 0.161 µM.
Regarding `COC[C@@]1(C)Nc2c(cnc3[nH]cc(C(=O)c4ccc(Oc5ccccc5)cc4F)c23)NC1=O` (single isomer, unassigned) [Z71-1], the half-inhibitory concentration (IC50) is 0.0083 µM at BTK (C481S); 0.0403 µM against p-BTK (C481S); 0.0085 µM at BTK; 0.0323 µM against p-BTK (WT); 0.18 µM in the test with TMD-8 cells.
On to `CC1(CO)Nc2c(cnc3[nH]cc(C(=O)c4ccc(Oc5ccccc5)cc4Cl)c23)NC1=O` (centres unmarked) [Z9, 9-(2-chloro-4-phenoxybenzoyl)-2-(hydroxymethyl)-2-methyl-1,2,4,7-tetrahydro-3H-pyrrolo[3′,2′:5,6]pyrido[3,4-b]pyrazin-3-one], for which the IC50 on BTK (C481S) is 0.0145 µM; against p-BTK (C481S), 0.058 µM; at BTK it was 0.0228 µM; against p-BTK (WT), 0.0235 µM; with TMD-8 cells (Homo sapiens, TMD8, 72 h) it was 0.232 µM.
As for `COC[C@]1(C)Nc2c(cnc3[nH]cc(C(=O)c4ccc(Oc5ccccc5)cc4Cl)c23)NC1=O` [Z13-1], the IC50 was 0.0098 µM against BTK (C481S); 0.0422 µM against p-BTK (C481S); 0.0114 µM on BTK; 0.0362 µM against p-BTK (WT); 0.0379 µM in the test on TMD-8 cells.
For `O=C(c1ccc(Oc2ccccc2)cc1Cl)c1c[nH]c2ncc3c(c12)NC1(CCOCC1)C(=O)N3` [Z14], in that order: 0.0051 µM, 0.0276 µM, 0.0076 µM, 0.0315 µM and 0.057 µM.
Take `COCC[C@]1(C)Nc2c(cnc3[nH]cc(C(=O)c4ccc(Oc5ccccc5)cc4Cl)c23)NC1=O` [Z78-2]: the IC50 was 0.0174 µM against BTK (C481S); 0.119 µM at p-BTK (C481S); 0.0102 µM at BTK; 0.0683 µM at p-BTK (WT); 0.254 µM with TMD-8 cells.
For the molecule `COC[C@]1(C)Nc2c(cnc3[nH]cc(C(=O)c4ccc(Oc5nccc(C)c5F)cc4Cl)c23)NC1=O` [Z132, 9-(2-chloro-4-((3-fluoro-4-methylpyridin-2-yl)oxy)benzoyl)-2-(methoxymethyl)-2-methyl-4,7-dihydro-1H-pyrrolo[3′,2′:5,6]pyrido[3,4-b]pyrazin-3(2H)-one], the IC50 against BTK (C481S) is 0.0155 µM; at p-BTK (C481S), 0.0361 µM; at BTK it was 0.0118 µM; against p-BTK (WT) it was 0.0165 µM; in the test with TMD-8 cells (Homo sapiens, TMD8, 72 h), 0.133 µM.
For `COC[C@]1(C)Nc2c(cnc3[nH]cc(C(=O)c4ccc(Oc5ccccn5)cc4Cl)c23)NC1=O` [Z136, (S)-9-(2-chloro-4-(pyridin-2-yloxy)benzoyl)-2-(methoxymethyl)-2-methyl-1,2,4,7-tetrahydro-3H-pyrrolo[3′,2′:5,6]pyrido[3,4-b]pyrazin-3-one], in that order: 0.0076 µM, 0.114 µM, 0.0067 µM, 0.0805 µM and 0.178 µM.
Consider `CN(C)C1CCC2(C1)Nc1c(cnc3[nH]cc(C(=O)c4ccc(Oc5ccccc5)cc4Cl)c13)NC2=O` (centres unmarked) [Z137], for which the 50% inhibitory concentration (IC50) was found to be 0.0103 µM at BTK (C481S); 0.0494 µM on p-BTK (C481S); 0.0129 µM on BTK; 0.0501 µM against p-BTK (WT); 0.139 µM in the test with TMD-8 cells.
As for `O=C(c1ccc(Oc2ccccc2)cc1Cl)c1c[nH]c2ncc3c(c12)NC1(CCC(N2CCOCC2)C1)C(=O)N3` (centres unmarked) [Z141, 9′-(2-chloro-4-phenoxybenzoyl)-3-morpholino-4′,7′-dihydrospiro[cyclopentane-1,2′-pyrrolo[3′,2′:5,6]pyrido[3,4-b]pyrazin]-3′(1′H)-one], the IC50 against BTK (C481S) turned out to be 0.0051 µM; at p-BTK (C481S) it was 0.0224 µM; at BTK it was 0.0115 µM; against p-BTK (WT), 0.0205 µM; in the test on TMD-8 cells (Homo sapiens, TMD8, 72 h), 0.0584 µM.
